{
  "source": "paper PMC10436550",
  "about": "“Subacute toxicity evaluations of LPM3480392 in rats, a full µ-opioid receptor biased agonist” (Frontiers in Pharmacology, 2023)",
  "test_system": "Sprague Dawley (SD) rats",
  "test": "Clinical chemistry, 4-week subacute toxicity study",
  "key": {"[1]": {"settings": "female rats, 0.6 mg/kg/day, End of dosing phase"}, "[2]": {"settings": "female rats, 0.6 mg/kg/day, End of recovery phase"}, "[3]": {"settings": "female rats, 1.2 mg/kg/day, End of dosing phase"}, "[4]": {"settings": "female rats, 1.2 mg/kg/day, End of recovery phase"}, "[5]": {"settings": "female rats, 2.4 mg/kg/day, End of dosing phase"}, "[6]": {"settings": "female rats, 2.4 mg/kg/day, End of recovery phase"}, "[7]": {"settings": "male rats, 0.6 mg/kg/day, End of dosing phase"}, "[8]": {"settings": "male rats, 0.6 mg/kg/day, End of recovery phase"}, "[9]": {"settings": "male rats, 1.2 mg/kg/day, End of dosing phase"}, "[10]": {"settings": "male rats, 1.2 mg/kg/day, End of recovery phase"}, "[11]": {"settings": "male rats, 2.4 mg/kg/day, End of dosing phase"}, "[12]": {"settings": "male rats, 2.4 mg/kg/day, End of recovery phase"}},
  "data": [
    {"compound": "Fc1ccc([C@]2(CCNCc3cccc(Cl)c3)CCO[C@]3(CCOC3)C2)nc1", "note": "[LPM3480392]", "values": [
      {"measurement": "A/G", "setting": "[1]", "result": "3.25 ± 0.35"},
      {"measurement": "ALB", "setting": "[1]", "result": "43.3 ± 2.6", "unit": "g/L"},
      {"measurement": "ALP", "setting": "[1]", "result": "87.4 ± 25.6", "unit": "U/L"},
      {"measurement": "ALT", "setting": "[1]", "result": "24.9 ± 4.2", "unit": "U/L"},
      {"measurement": "AST", "setting": "[1]", "result": "126.9 ± 16.0", "unit": "U/L"},
      {"measurement": "CREA", "setting": "[1]", "result": "27.9 ± 2.4", "unit": "µmol/L"},
      {"measurement": "GLU", "setting": "[1]", "result": "6.20 ± 0.43", "unit": "mmol/L"},
      {"measurement": "TBIL", "setting": "[1]", "result": "1.0 ± 0.5", "unit": "µmol/L"},
      {"measurement": "TG", "setting": "[1]", "result": "0.19 ± 0.05", "unit": "mmol/L"},
      {"measurement": "TP", "setting": "[1]", "result": "56.7 ± 2.2", "unit": "g/L"},
      {"measurement": "A/G", "setting": "[2]", "result": "2.68 ± 0.12"},
      {"measurement": "ALB", "setting": "[2]", "result": "46.4 ± 2.4", "unit": "g/L"},
      {"measurement": "ALP", "setting": "[2]", "result": "60.5 ± 13.8", "unit": "U/L"},
      {"measurement": "ALT", "setting": "[2]", "result": "29.0 ± 6.6", "unit": "U/L"},
      {"measurement": "AST", "setting": "[2]", "result": "103.0 ± 8.5", "unit": "U/L"},
      {"measurement": "CREA", "setting": "[2]", "result": "36.2 ± 3.7", "unit": "µmol/L"},
      {"measurement": "GLU", "setting": "[2]", "result": "7.01 ± 0.37", "unit": "mmol/L"},
      {"measurement": "TBIL", "setting": "[2]", "result": "1.1 ± 0.5", "unit": "µmol/L"},
      {"measurement": "TG", "setting": "[2]", "result": "0.28 ± 0.08", "unit": "mmol/L"},
      {"measurement": "TP", "setting": "[2]", "result": "63.8 ± 2.6", "unit": "g/L"},
      {"measurement": "A/G", "setting": "[3]", "result": "2.70 ± 0.42"},
      {"measurement": "ALB", "setting": "[3]", "result": "40.1 ± 2.0", "unit": "g/L"},
      {"measurement": "ALP", "setting": "[3]", "result": "95.9 ± 26.3", "unit": "U/L"},
      {"measurement": "ALT", "setting": "[3]", "result": "28.0 ± 8.0", "unit": "U/L"},
      {"measurement": "AST", "setting": "[3]", "result": "122.5 ± 16.8", "unit": "U/L"},
      {"measurement": "CREA", "setting": "[3]", "result": "29.4 ± 2.4", "unit": "µmol/L"},
      {"measurement": "GLU", "setting": "[3]", "result": "6.44 ± 0.43", "unit": "mmol/L"},
      {"measurement": "TBIL", "setting": "[3]", "result": "0.7 ± 0.2", "unit": "µmol/L"},
      {"measurement": "TG", "setting": "[3]", "result": "0.19 ± 0.03", "unit": "mmol/L"},
      {"measurement": "TP", "setting": "[3]", "result": "55.2 ± 2.1", "unit": "g/L"},
      {"measurement": "A/G", "setting": "[4]", "result": "2.63 ± 0.37"},
      {"measurement": "ALB", "setting": "[4]", "result": "47.0 ± 3.5", "unit": "g/L"},
      {"measurement": "ALP", "setting": "[4]", "result": "51.5 ± 17.8", "unit": "U/L"},
      {"measurement": "ALT", "setting": "[4]", "result": "29.2 ± 2.7", "unit": "U/L"},
      {"measurement": "AST", "setting": "[4]", "result": "95.9 ± 16.3", "unit": "U/L"},
      {"measurement": "CREA", "setting": "[4]", "result": "35.2 ± 1.3", "unit": "µmol/L"},
      {"measurement": "GLU", "setting": "[4]", "result": "6.80 ± 0.80", "unit": "mmol/L"},
      {"measurement": "TBIL", "setting": "[4]", "result": "1.2 ± 0.3", "unit": "µmol/L"},
      {"measurement": "TG", "setting": "[4]", "result": "0.27 ± 0.03", "unit": "mmol/L"},
      {"measurement": "TP", "setting": "[4]", "result": "65.1 ± 4.0", "unit": "g/L"},
      {"measurement": "A/G", "setting": "[5]", "result": "2.64 ± 0.37"},
      {"measurement": "ALB", "setting": "[5]", "result": "39.9 ± 1.9", "unit": "g/L"},
      {"measurement": "ALP", "setting": "[5]", "result": "124.1 ± 41.1", "unit": "U/L"},
      {"measurement": "ALT", "setting": "[5]", "result": "28.7 ± 4.2", "unit": "U/L"},
      {"measurement": "AST", "setting": "[5]", "result": "132.4 ± 15.4", "unit": "U/L"},
      {"measurement": "CREA", "setting": "[5]", "result": "24.4 ± 1.5", "unit": "µmol/L"},
      {"measurement": "GLU", "setting": "[5]", "result": "6.66 ± 0.45", "unit": "mmol/L"},
      {"measurement": "TBIL", "setting": "[5]", "result": "0.7 ± 0.2", "unit": "µmol/L"},
      {"measurement": "TG", "setting": "[5]", "result": "0.16 ± 0.03", "unit": "mmol/L"},
      {"measurement": "TP", "setting": "[5]", "result": "55.2 ± 1.4", "unit": "g/L"},
      {"measurement": "A/G", "setting": "[6]", "result": "2.55 ± 0.13"},
      {"measurement": "ALB", "setting": "[6]", "result": "45.5 ± 2.1", "unit": "g/L"},
      {"measurement": "ALP", "setting": "[6]", "result": "59.2 ± 16.1", "unit": "U/L"},
      {"measurement": "ALT", "setting": "[6]", "result": "34.0 ± 7.0", "unit": "U/L"},
      {"measurement": "AST", "setting": "[6]", "result": "105.9 ± 15.9", "unit": "U/L"},
      {"measurement": "CREA", "setting": "[6]", "result": "32.5 ± 3.1", "unit": "µmol/L"},
      {"measurement": "GLU", "setting": "[6]", "result": "6.61 ± 0.24", "unit": "mmol/L"},
      {"measurement": "TBIL", "setting": "[6]", "result": "0.9 ± 0.6", "unit": "µmol/L"},
      {"measurement": "TG", "setting": "[6]", "result": "0.30 ± 0.06", "unit": "mmol/L"},
      {"measurement": "TP", "setting": "[6]", "result": "63.4 ± 3.3", "unit": "g/L"},
      {"measurement": "Increased AST and GLU and decreased CREA, magnitude", "setting": "female rats, all LPM3480392 groups", "result": "< 18", "unit": "%"},
      {"measurement": "Decreased ALB, magnitude", "setting": "females, all LPM3480392 groups", "result": "< 18", "unit": "%"},
      {"measurement": "Decreased TP, magnitude", "setting": "females, all LPM3480392 groups", "result": "< 18", "unit": "%"},
      {"measurement": "A/G", "setting": "[7]", "result": "3.02 ± 0.34"},
      {"measurement": "ALB", "setting": "[7]", "result": "39.8 ± 2.0", "unit": "g/L"},
      {"measurement": "GLU", "setting": "[7]", "result": "5.90 ± 0.48", "unit": "mmol/L"},
      {"measurement": "TG", "setting": "[7]", "result": "0.21 ± 0.06", "unit": "mmol/L"},
      {"measurement": "TP", "setting": "[7]", "result": "53.0 ± 2.3", "unit": "g/L"},
      {"measurement": "A/G", "setting": "[8]", "result": "2.10 ± 0.18"},
      {"measurement": "ALB", "setting": "[8]", "result": "37.4 ± 0.4", "unit": "g/L"},
      {"measurement": "GLU", "setting": "[8]", "result": "7.26 ± 0.55", "unit": "mmol/L"},
      {"measurement": "TG", "setting": "[8]", "result": "0.26 ± 0.16", "unit": "mmol/L"},
      {"measurement": "TP", "setting": "[8]", "result": "55.2 ± 1.7", "unit": "g/L"},
      {"measurement": "A/G", "setting": "[9]", "result": "3.03 ± 0.37"},
      {"measurement": "ALB", "setting": "[9]", "result": "38.4 ± 2.0", "unit": "g/L"},
      {"measurement": "GLU", "setting": "[9]", "result": "6.39 ± 0.32", "unit": "mmol/L"},
      {"measurement": "TG", "setting": "[9]", "result": "0.19 ± 0.05", "unit": "mmol/L"},
      {"measurement": "TP", "setting": "[9]", "result": "51.3 ± 2.3", "unit": "g/L"},
      {"measurement": "A/G", "setting": "[10]", "result": "2.05 ± 0.08"},
      {"measurement": "ALB", "setting": "[10]", "result": "36.6 ± 0.8", "unit": "g/L"},
      {"measurement": "GLU", "setting": "[10]", "result": "6.64 ± 0.99", "unit": "mmol/L"},
      {"measurement": "TG", "setting": "[10]", "result": "0.33 ± 0.12", "unit": "mmol/L"},
      {"measurement": "TP", "setting": "[10]", "result": "54.5 ± 0.6", "unit": "g/L"},
      {"measurement": "A/G", "setting": "[11]", "result": "2.94 ± 0.30"},
      {"measurement": "ALB", "setting": "[11]", "result": "38.0 ± 1.6", "unit": "g/L"},
      {"measurement": "GLU", "setting": "[11]", "result": "6.76 ± 0.56", "unit": "mmol/L"},
      {"measurement": "TG", "setting": "[11]", "result": "0.17 ± 0.05", "unit": "mmol/L"},
      {"measurement": "TP", "setting": "[11]", "result": "51.0 ± 1.4", "unit": "g/L"},
      {"measurement": "A/G", "setting": "[12]", "result": "2.25 ± 0.27"},
      {"measurement": "ALB", "setting": "[12]", "result": "37.7 ± 0.7", "unit": "g/L"},
      {"measurement": "GLU", "setting": "[12]", "result": "6.53 ± 0.83", "unit": "mmol/L"},
      {"measurement": "TG", "setting": "[12]", "result": "0.31 ± 0.12", "unit": "mmol/L"},
      {"measurement": "TP", "setting": "[12]", "result": "54.6 ± 1.7", "unit": "g/L"},
      {"measurement": "Decreased ALB, magnitude", "setting": "males, all LPM3480392 groups", "result": "< 10", "unit": "%"},
      {"measurement": "Decreased GLU, magnitude", "setting": "males, all LPM3480392 groups", "result": "< 20", "unit": "%"},
      {"measurement": "Decreased TG, magnitude", "setting": "males, all LPM3480392 groups", "result": "< 49", "unit": "%"},
      {"measurement": "Decreased TP, magnitude", "setting": "males, all LPM3480392 groups", "result": "< 10", "unit": "%"}
    ]}
  ]
}
